Test results published in patent US20210069176A1, “Treating Autoimmune Disorders with Chloroquine and/or Hydroxychloroquine” (Attillaps Holdings, priority 2018, published 2021).

Columns and labels:
[1] = test system: Demodex mites; test: in vitro Demodex survival time assay
Description: FIG. 4 summarizes the activity of 10% chloroquine in water relative to a water control on activity against Demodex mites in an in vitro assay, with an LT50 of 31.6 hours for chloroquine compared to 44.8 hours for the water control, illustrating the inactivation effect of chloroquine on Demodex.
Example 4: In vitro efficacy and mite lifetimes: Relative efficacy of various formulations are evaluated with a demodex survival time experiments. FIG. 3 tabulates demodex survival time, expressed in terms of LT50 (time at which 50% of demodex mites are killed) and/or average minutes to death for various active agents.

[2] = dichlorvos 1%, one patient; cited from earlier work

SMILES	LT50 (time at which 50% of demodex mites are killed) ([1]; 10% chloroquine in water, water control 44.8 hours, FIG. 4) [h]	activity against Demodex mites ([1]; in vitro assay, FIG. 3)	remission of Papulopostular Rosacea (PPR) [2]
CCN(CC)CCCC(C)Nc1ccnc2cc(Cl)ccc12 (stereo not drawn) [chloroquine]	31.6	has activity against Demodex mites	–
COP(=O)(OC)OC=C(Cl)Cl [dichlorvos]	–	–	complete and continued remission
